Measured values from article PMC11484942, “Rumicidins are a family of mammalian host-defense peptides plugging the 70S ribosome exit tunnel” (Nature Communications, 2024).
Ends that are not written are not given here.

Legend:
[1] = tested on: E. coli 1057 R2 (rpoS^Q3stop, macB^N470D); settings: MHB + 0.9% NaCl
Protocol: Minimum inhibitory concentrations (MIC) were determined by broth microdilution assay based on Clinical and Laboratory Standards Institute (CLSI) guidelines using BSA in the growth medium to minimize AMP nonspecific adsorption. Bacterial test cultures were grown in the Mueller-Hinton broth (MHB, Sigma) at 37 °C to mid-log phase and then diluted with the 2× MH medium supplemented with 1.8% NaCl (or without salt) so that to reach a final cell concentration of 10^6 CFU/mL. 50 µL of the obtained bacterial suspension were added to aliquots of 50 µL of the peptide solutions serially diluted with sterilized 0.1% bovine serum albumin (BSA) in 96-well flat-bottom polystyrene microplates (Eppendorf #0030730011). […] To verify MIC values, the respiratory activity of the bacteria was determined. Briefly, 5 µL of 0.5 mg/mL resazurin (Sigma) was added to the wells after 24 h (or after 48 h for M. smegmatis) of incubation, and the plate was incubated for additional 3 h. In some cases, MICs were determined in the Lysogeny Broth (LB) or Middlebrook 7H9 medium. The reduction of resazurin to resorufin was recorded. […] The results were expressed as the median values determined based on at least three independent experiments performed in triplicate.
Resistance induction experiments were performed using the previously described method. This approach allows for monitoring MIC values after each transfer. Briefly, on the first day, the overnight culture of the wild-type bacteria was diluted with the 2× MHB supplemented with 1.8% NaCl (or without salt) to reach a final cell concentration of 10^6 CFU/mL. 50 µL of the obtained bacterial suspension were added to aliquots of 50 µL of the peptide solutions serially diluted with the sterilized 0.1% BSA in 96-well flat-bottom polystyrene microplates. After incubation for 20 ± 2 h at 37 °C and 950 rpm, MICs were determined as described above. For each subsequent daily transfer, 2–4 μL of the inoculum taken from the first well containing a sub-inhibitory drug concentration was diluted with 2 mL of the fresh 2× MHB supplemented with 1.8% NaCl (or without salt). […] Multiple repeated passages in the presence of antimicrobial agents were performed for each bacterial strain during the experiment. Bacteria that grew at the highest concentrations of AMPs on the final day were passaged further 3 times on drug-free agar plates before determining the final MIC value.

E. coli 1057 WT = assay: microbe, parasite or virus in culture; type: cell-based, Escherichia coli; settings: MHB + 0.9% NaCl
[2] = tested on: HEK293T (transformed embryonic kidney cells); assay: MTT cytotoxicity; type: cell-based, human; settings: mean
Protocol: (§1) Hemolytic activity of the peptides was tested against the fresh suspension of human red blood cells (hRBC) using the hemoglobin release assay as described previously. Two experiments were performed with the hRBC from blood samples collected from healthy donors by certified medical personnel upon informed written consent. All procedures were approved by the Ethics Committee of the Institute of Experimental Medicine (protocol 1/20 of 2/27/2020) and comply with the ethical principles of the Declaration of Helsinki. The quantitative data were represented as average means with standard deviations. The colorimetric 3-(4,5-dimethylthiazol-2-yl)-2,5-diphenyltetrazolium bromide (MTT) dye reduction assay was used to determine cytotoxicity of the peptides against human keratinocyte cell line (HaCaT) and transformed human embryonic kidney cells (HEK293T). Both cell lines were purchased from American Type Culture Collection (ATCC). 10^4 cells per well in Dulbecco’s modified Eagle’s medium (DMEM/F12) supplemented with 10% fetal bovine serum (FBS, Invitrogen) were placed into 96-well plates and then cultured in the CO2-incubator (5% CO2, 37 °C). After the media were removed, the peptides were dissolved in 100 µL of the same medium and added to cell cultures at different final concentrations. 20 h later, 20 μL of MTT (5 mg/mL, Sigma) was added to each well, and the plates were incubated for 4 h at 37 °C. Then, the media were discarded and 100 µL DMSO-isopropanol mixture at a ratio of 1:1 (v/v) was added to each well to dissolve the crystallized formazan. The absorbance at 570 nm was measured by a microplate reader AF2200 (Eppendorf). An optical density in the wells containing cells cultured without the peptides was assumed to represent 100% cell viability. Two independent experiments were performed for each peptide.

HaCaT (keratinocytes) = assay: MTT cytotoxicity; type: cell-based, human; settings: mean
Protocol: as §1

E. coli BW25113 = assay: MIC broth microdilution; type: cell-based, Escherichia coli; settings: for Minimum inhibitory concentration MHB + 0.9% NaCl: Mueller-Hinton broth + 0.9% NaCl; for Minimum inhibitory concentration MHB + 0.9% NaCl / Minimum inhibitory concentration MHB: 24 h 37 °C, median of ≥3 experiments; for Minimum inhibitory concentration MHB: Mueller-Hinton broth without salt; for fold change of MIC vs wild-type rumicidin-1: N-terminal shortening
Protocol: (§2) The reduction of resazurin to resorufin was recorded.

[3] = tested on: E. coli BL21 (DE3) Star cell extract; assay: Cell-free protein synthesis (coupled transcription/translation) of EGFP; type: biochemical, Escherichia coli; settings: minimum concentration that provides >90% inhibition of the EGFP synthesis in the CFPS system
Protocol: To investigate the effects of AMPs and antibiotics on the coupled transcription/translation process, the test compounds were added to a cell-free protein synthesis (CFPS) reaction mix with a plasmid encoding enhanced green fluorescent protein (EGFP) variant (F64L, S65T, Q80R, F99S, M153T, and V163A) under control of the T7 promoter. The cell lysate was prepared using the E. coli BL21 Star (DE3) overexpressed T7 RNA polymerase as described previously. The reaction mix consisted of the following components: 1.2 mM ATP, 0.8 mM UTP, 0.8 mM GTP, 0.8 mM CTP, 2 mM of each of 20 proteinogenic amino acids, 1.5 mM spermidine, 1 mM putrescine dihydrochloride, 0.06647 mM calcium folinate, […] tRNA from the E. coli MRE 600 strain, 0.33 mM NAD, 120 mM HEPES-KOH (pH 8.0), 10 mM ammonium glutamate, 175 mM potassium glutamate, 60 mM glucose, 15 mM magnesium glutamate, 2% PEG 8000, 25% E. coli BL21 Star (DE3) cell lysate, 1 ng/ml plasmid DNA. The reaction volume was 50 µL. The peptides were dissolved in PBS with the addition of 0.1% BSA. Erythromycin was used in the positive control reactions. The fluorescence of the sample without inhibitor was set as the 100% value. The reaction proceeded for 2 h in 96-well v-bottom black polystyrene microplates (Eppendorf #0030601904) in a plate shaker (30 °C, 1000 rpm). The fluorescence of the synthesized EGFP was measured with the microplate reader AF2200 (λEx = 488 nm, λEm = 510 nm; Eppendorf). The experimental data were obtained from at least two independent experiments performed in triplicate. Non-linear regression curves were generated using GraphPad Prism v.8.0.1 (GraphPad Software Inc.).

[4] = tested on: Mycobacterium smegmatis mc(2)155; type: cell-based; settings: Mycobacterium mc(2)155, 24 h
Protocol: as §2

S. aureus ATCC 29213 = type: cell-based, Staphylococcus aureus; settings: ATCC 29213, 24 h
Protocol: as §2

CC[C@H](C)[C@H](NC(=O)CN)C(=O)NCC(=O)N[C@@H](C)C(=O)N[C@H](C(=O)N[C@@H](CC(C)C)C(=O)N[C@@H](CCCCN)C(=O)N[C@H](C(=O)N[C@@H](CC(C)C)C(=O)N[C@H](C(=O)N[C@H](C(=O)NCC(=O)N[C@@H](CC(C)C)C(=O)N1CCC[C@H]1C(=O)N[C@@H](C)C(=O)N[C@@H](CC(C)C)C(=O)N[C@H](C(=O)N[C@@H](CO)C(=O)N[C@@H](Cc1c[nH]c2ccccc12)C(=O)N[C@H](C(=O)N[C@@H](CCCCN)C(=O)N[C@@H](CCCNC(=N)N)C(=O)N[C@@H](CCCCN)C(=O)N[C@@H](CCCNC(=N)N)C(=O)N[C@@H](CCC(N)=O)C(=O)N[C@@H](CCC(N)=O)C(N)=O)[C@@H](C)CC)[C@@H](C)CC)[C@@H](C)O)[C@@H](C)O)C(C)C)C(C)C [Melittin]
MIC [1]: 16 µM
MIC (E. coli 1057 WT): 8 µM
HEK293T cell viability ([2]; 0.25 µM): 101.366%
HEK293T cell viability ([2]; 0.5 µM): 102.416%
HEK293T cell viability ([2]; 1 µM): 98.73%
HEK293T cell viability ([2]; 2 µM): 27.546%
HEK293T cell viability ([2]; 4 µM): 9.889%
HEK293T cell viability ([2]; 8 µM): 9.248%
HEK293T cell viability ([2]; 16 µM): 9.026%
HaCaT cell viability (HaCaT (keratinocytes); 0.25 µM): 102.196%
HaCaT cell viability (HaCaT (keratinocytes); 0.5 µM): 104.998%
HaCaT cell viability (HaCaT (keratinocytes); 1 µM): 106.041%
HaCaT cell viability (HaCaT (keratinocytes); 2 µM): 106.484%
HaCaT cell viability (HaCaT (keratinocytes); 4 µM): 67.714%
HaCaT cell viability (HaCaT (keratinocytes); 8 µM): 4.039%
HaCaT cell viability (HaCaT (keratinocytes); 16 µM): 2.958%
HaCaT cell viability (HaCaT (keratinocytes); 32 µM): 4.046%

RARRPRPPKPRPPHRPRPRPRP [Rum-1[1-22]]
Minimum inhibitory concentration MHB + 0.9% NaCl (E. coli BW25113): 256 µM
Minimum inhibitory concentration MHB (E. coli BW25113): 16 µM

RGGRLCYCRRRFCVCVGR (Protegrin-1; UniProt P32194 131-148, looked up) [β-hairpin AMP; recombinant]
MIC [1]: 0.25 µM
MIC (E. coli 1057 WT): 0.25 µM

Gentamycin
MIC [1]: 2 µM
MIC (E. coli 1057 WT): 2 µM

RPRPPKPRPPHRPRPRPRPWFPPRFP [Rum-1[4-29]]
Protein synthesis inhibition [3]: 4 µM
Minimum inhibitory concentration MHB + 0.9% NaCl (E. coli BW25113): 16 µM
Minimum inhibitory concentration MHB (E. coli BW25113): 4 µM
fold change of MIC vs wild-type rumicidin-1 (E. coli BW25113): two-fold

O=C(N[C@H](CO)[C@H](O)c1ccc([N+](=O)[O-])cc1)C(Cl)Cl [Chloramphenicol]
MIC (E. coli 1057 WT; Escherichia coli, 1057WT, 24 h): 16 µM

RPPHRPRPRPRPWFPPRFP [Rum-1[11-29]]
Protein synthesis inhibition [3]: 32 µM
Minimum inhibitory concentration MHB + 0.9% NaCl (E. coli BW25113): 64 µM
Minimum inhibitory concentration MHB (E. coli BW25113): 8 µM
fold change of MIC vs wild-type rumicidin-1 (E. coli BW25113): ≥ 4 fold

RPRPRPRPWFPPRFP [Rum-1[15-29]]
Protein synthesis inhibition [3]: 256 µM
Minimum inhibitory concentration MHB + 0.9% NaCl (E. coli BW25113): > 256 µM
Minimum inhibitory concentration MHB (E. coli BW25113): 32 µM

NC[C@H]1O[C@H](O[C@H]2[C@H](O)[C@@H](O[C@H]3O[C@H](CO)[C@@H](O)[C@H](N)[C@H]3O)[C@H](N)C[C@@H]2N)[C@H](O)[C@@H](O)[C@@H]1O [Kanamycin]
MIC [1]: 8 µM
MIC (E. coli 1057 WT): 8 µM

CC1(C)S[C@@H]2[C@H](NC(=O)[C@H](N)c3ccccc3)C(=O)N2[C@H]1C(=O)O [Ampicillin]
MIC (E. coli 1057 WT; Escherichia coli, 1057WT, 24 h): > 128 µM

[H]/N=C(/N)N[C@H]1[C@H](O)[C@@H](O)[C@H](O[C@@H]2O[C@@H](C)[C@](O)(C=O)[C@H]2O[C@@H]2O[C@@H](CO)[C@H](O)[C@@H](O)[C@@H]2NC)[C@@H](N/C(N)=N\[H])[C@@H]1O [Streptomycin]
MIC (E. coli 1057 WT; Escherichia coli, 1057WT, 24 h): 4 µM

CCC[C@@H]1C[C@@H](C(=O)N[C@@H]([C@H]2O[C@H](SC)[C@H](O)[C@@H](O)[C@H]2O)[C@H](C)Cl)N(C)C1 [Clindamycin]
MIC (E. coli 1057 WT; Escherichia coli, 1057WT, 24 h): 128 µM

CN(C)[C@@H]1C(O)=C(C(N)=O)C(=O)[C@@]2(O)C(O)=C3C(=O)c4c(O)cccc4[C@@](C)(O)[C@H]3C[C@@H]12 [Tetracycline]
MIC (E. coli 1057 WT; Escherichia coli, 1057WT, 24 h): 4 µM

CO[C@H]1/C=C/O[C@@]2(C)Oc3c(C)c(O)c4c(O)c(c(/C=N/N5CCN(C)CC5)c(O)c4c3C2=O)NC(=O)/C(C)=C\C=C\[C@H](C)[C@H](O)[C@@H](C)[C@@H](O)[C@@H](C)[C@H](OC(C)=O)[C@@H]1C [Rifampicin]
MIC (E. coli 1057 WT; Escherichia coli, 1057WT, 24 h): 32 µM

RPPKPRPPHRPRPRPRPWFPPRFP [Rum-1[6-29]]
Protein synthesis inhibition [3]: 4 µM
Minimum inhibitory concentration MHB + 0.9% NaCl (E. coli BW25113): 16 to 32 µM
Minimum inhibitory concentration MHB (E. coli BW25113): 4 µM
fold change of MIC vs wild-type rumicidin-1 (E. coli BW25113): two-fold

RARRPRPPKPRPPHRP [Rum-1[1-16]]
Minimum inhibitory concentration MHB + 0.9% NaCl (E. coli BW25113): > 256 µM
Minimum inhibitory concentration MHB (E. coli BW25113): 256 µM

PHRPRPRPRPWFPPRFP [Rum-1[13-29]]
Protein synthesis inhibition [3]: 64 µM
Minimum inhibitory concentration MHB + 0.9% NaCl (E. coli BW25113): > 256 µM
Minimum inhibitory concentration MHB (E. coli BW25113): 32 µM

RDRRRRPPRPRPPHRPRPRPLPWFPPRFP [Rumicidin-2]
Minimum inhibitory concentration (MIC) [4]: 1 µM
MIC S. aureus ATCC 29213 (S. aureus ATCC 29213): > 32 µM
MIC [1]: > 64 µM

RRLRPRRPRLPRPRPRPRPRPR [mini-ChBac7.5Nα]
MIC [1]: > 32 µM

CN[C@@H]1[C@H](O)[C@H](NC)[C@H]2O[C@@]3(O)C(=O)C[C@@H](C)O[C@H]3O[C@@H]2[C@H]1O [Spectinomycin]
MIC (E. coli 1057 WT; Escherichia coli, 1057WT, 24 h): 64 µM

CO/N=C(\C(=O)N[C@@H]1C(=O)N2C(C(=O)O)=C(CSc3nc(=O)c(=O)[nH]n3C)CS[C@H]12)c1csc(N)n1 [Ceftriaxone]
MIC (E. coli 1057 WT; Escherichia coli, 1057WT, 24 h): 128 µM
